# From ChEMBL document CHEMBL5291721, “A preclinical secondary pharmacology resource illuminates target-adverse drug reaction associations of marketed drugs” (Nat Commun, 2023)
# Experiments:
# [1] = molecular target: T1, 5-hydroxytryptamine receptor 3A (Homo sapiens, UniProt P46098); type: functional
# T1 sequence (P46098 whole entry): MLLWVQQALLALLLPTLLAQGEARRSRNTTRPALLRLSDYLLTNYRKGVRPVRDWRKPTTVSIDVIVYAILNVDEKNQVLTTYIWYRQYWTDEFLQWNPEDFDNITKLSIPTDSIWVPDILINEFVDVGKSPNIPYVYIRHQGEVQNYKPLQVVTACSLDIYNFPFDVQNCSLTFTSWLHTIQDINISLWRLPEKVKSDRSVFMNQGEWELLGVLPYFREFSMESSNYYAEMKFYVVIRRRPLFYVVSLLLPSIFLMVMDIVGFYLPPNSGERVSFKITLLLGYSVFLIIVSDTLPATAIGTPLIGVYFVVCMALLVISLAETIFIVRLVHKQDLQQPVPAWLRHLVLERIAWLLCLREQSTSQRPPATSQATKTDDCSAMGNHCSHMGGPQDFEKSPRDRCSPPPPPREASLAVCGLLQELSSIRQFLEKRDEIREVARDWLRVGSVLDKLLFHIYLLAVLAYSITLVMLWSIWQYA
# [2] = molecular target: T2, 5-hydroxytryptamine receptor 2C (Homo sapiens, UniProt P28335)
# T2 sequence (P28335 whole entry): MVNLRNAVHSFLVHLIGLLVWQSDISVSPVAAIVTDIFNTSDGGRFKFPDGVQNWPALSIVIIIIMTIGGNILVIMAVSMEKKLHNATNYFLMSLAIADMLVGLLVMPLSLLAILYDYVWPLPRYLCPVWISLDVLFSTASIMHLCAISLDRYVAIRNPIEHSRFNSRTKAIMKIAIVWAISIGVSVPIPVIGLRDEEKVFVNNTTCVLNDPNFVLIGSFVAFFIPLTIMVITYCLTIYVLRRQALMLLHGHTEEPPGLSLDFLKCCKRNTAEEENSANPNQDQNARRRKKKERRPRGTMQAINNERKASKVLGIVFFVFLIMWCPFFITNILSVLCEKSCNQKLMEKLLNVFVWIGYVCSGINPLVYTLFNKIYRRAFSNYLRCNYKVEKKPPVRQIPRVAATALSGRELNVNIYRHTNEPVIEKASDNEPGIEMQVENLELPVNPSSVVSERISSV
# Mu-type opioid receptor = Mu-type opioid receptor (Homo sapiens, UniProt P35372)
# Mu-type opioid receptor, sequence (P35372 whole entry): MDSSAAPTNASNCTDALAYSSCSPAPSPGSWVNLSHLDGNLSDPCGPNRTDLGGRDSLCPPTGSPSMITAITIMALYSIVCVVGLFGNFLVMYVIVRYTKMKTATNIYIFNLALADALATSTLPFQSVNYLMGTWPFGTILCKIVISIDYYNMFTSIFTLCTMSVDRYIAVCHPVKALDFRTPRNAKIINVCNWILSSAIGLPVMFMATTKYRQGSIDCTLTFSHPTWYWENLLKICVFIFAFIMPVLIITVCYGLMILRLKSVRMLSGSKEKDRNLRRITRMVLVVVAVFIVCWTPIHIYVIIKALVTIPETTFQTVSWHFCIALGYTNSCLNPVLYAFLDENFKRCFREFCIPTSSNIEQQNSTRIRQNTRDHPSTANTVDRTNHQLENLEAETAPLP
# [3] = molecular target: T3, 5-hydroxytryptamine receptor 1A (Homo sapiens, UniProt P08908); type: functional, cell-based
# T3 sequence (P08908 whole entry): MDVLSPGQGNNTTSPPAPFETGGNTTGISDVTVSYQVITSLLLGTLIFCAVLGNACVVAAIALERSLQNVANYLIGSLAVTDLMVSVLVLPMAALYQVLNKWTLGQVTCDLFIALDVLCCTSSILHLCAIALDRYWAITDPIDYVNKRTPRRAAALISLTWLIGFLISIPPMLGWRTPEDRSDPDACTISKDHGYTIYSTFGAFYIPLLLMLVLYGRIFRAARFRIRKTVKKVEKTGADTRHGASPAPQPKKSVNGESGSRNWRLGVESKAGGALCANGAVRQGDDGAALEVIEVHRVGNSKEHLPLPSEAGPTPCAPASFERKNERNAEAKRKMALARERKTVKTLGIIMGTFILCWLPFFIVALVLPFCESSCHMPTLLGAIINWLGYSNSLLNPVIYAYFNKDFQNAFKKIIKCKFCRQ
# Adenosine receptor A1 = molecular target: T4, Adenosine receptor A1 (Homo sapiens, UniProt P30542)
# T4 sequence (P30542 whole entry): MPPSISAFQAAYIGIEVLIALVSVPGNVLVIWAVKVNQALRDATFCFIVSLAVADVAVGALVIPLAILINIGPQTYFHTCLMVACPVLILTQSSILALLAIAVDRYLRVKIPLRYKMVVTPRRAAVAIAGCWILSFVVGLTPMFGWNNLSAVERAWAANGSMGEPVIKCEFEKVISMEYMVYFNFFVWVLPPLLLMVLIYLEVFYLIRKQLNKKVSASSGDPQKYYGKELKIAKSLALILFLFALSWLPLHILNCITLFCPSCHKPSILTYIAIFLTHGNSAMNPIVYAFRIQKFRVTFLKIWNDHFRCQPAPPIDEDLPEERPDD
# Melanocortin receptor 3 = Melanocortin receptor 3 (Homo sapiens, UniProt P41968)
# Melanocortin receptor 3, sequence (P41968 whole entry): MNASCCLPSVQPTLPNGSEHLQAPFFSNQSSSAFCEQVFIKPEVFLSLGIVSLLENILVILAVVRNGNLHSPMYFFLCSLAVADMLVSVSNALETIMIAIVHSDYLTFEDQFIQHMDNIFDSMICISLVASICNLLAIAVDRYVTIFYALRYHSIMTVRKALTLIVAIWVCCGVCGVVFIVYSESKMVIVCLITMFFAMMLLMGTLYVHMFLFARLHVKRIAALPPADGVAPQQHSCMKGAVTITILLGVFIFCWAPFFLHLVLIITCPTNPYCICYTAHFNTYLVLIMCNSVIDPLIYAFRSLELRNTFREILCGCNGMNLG
# [4] = molecular target: T5, Alpha-2A adrenergic receptor (Homo sapiens, UniProt P08913); type: functional, cell-based
# T5 sequence (P08913 whole entry): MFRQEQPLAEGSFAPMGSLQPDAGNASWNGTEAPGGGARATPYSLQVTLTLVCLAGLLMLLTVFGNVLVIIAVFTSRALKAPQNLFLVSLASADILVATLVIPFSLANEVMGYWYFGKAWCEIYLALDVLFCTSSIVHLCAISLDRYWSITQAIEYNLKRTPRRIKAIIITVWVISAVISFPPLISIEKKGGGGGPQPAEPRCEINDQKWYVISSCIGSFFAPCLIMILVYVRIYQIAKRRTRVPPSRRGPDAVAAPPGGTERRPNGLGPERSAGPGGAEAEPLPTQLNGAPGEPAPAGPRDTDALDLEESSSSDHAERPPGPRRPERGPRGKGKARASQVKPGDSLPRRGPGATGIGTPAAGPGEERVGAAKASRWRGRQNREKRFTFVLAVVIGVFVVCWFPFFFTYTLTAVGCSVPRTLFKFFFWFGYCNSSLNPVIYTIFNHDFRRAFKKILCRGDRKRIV
# Adenosine receptor A3 = molecular target: T6, Adenosine receptor A3 (Homo sapiens, UniProt P0DMS8)
# T6 sequence (P0DMS8 whole entry): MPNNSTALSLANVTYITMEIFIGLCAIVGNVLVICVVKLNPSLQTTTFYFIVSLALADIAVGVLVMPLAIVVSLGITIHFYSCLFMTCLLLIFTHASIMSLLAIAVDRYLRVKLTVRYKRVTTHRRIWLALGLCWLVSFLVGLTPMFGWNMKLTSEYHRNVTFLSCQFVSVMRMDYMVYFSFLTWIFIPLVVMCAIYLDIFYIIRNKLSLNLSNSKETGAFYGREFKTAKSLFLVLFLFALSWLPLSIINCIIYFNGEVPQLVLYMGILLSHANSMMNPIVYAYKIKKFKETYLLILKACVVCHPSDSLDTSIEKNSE
# Also: assay procedure not described here.
SMILES,AC50 [1] [µM],AC50 [2] [µM],AC50 (Mu-type opioid receptor) [µM],AC50 [3] [µM],AC50 (Adenosine receptor A1) [µM],AC50 (Melanocortin receptor 3) [µM],AC50 [4] [µM],AC50 (Adenosine receptor A3) [µM]
CC12CC3CC(C)(C1)CC(N)(C3)C2 [MEMANTINE],> 30,> 30,> 10,> 10,> 30,> 30,> 10,> 30
CC(CCc1ccc(O)cc1)NCCc1ccc(O)c(O)c1 (stereo not drawn) [DOBUTAMINE],27,> 30,1.7,> 10,> 30,> 30,> 30,22.9
CN1CCN(C2=Nc3ccccc3Oc3ccc(Cl)cc32)CC1 [LOXAPINE],0.38,0.029,13,> 10,> 30,> 30,,> 30
CCC(=O)O[C@]1(C(=O)SCF)[C@H](C)C[C@H]2[C@@H]3C[C@H](F)C4=CC(=O)C=C[C@]4(C)[C@@]3(F)[C@@H](O)C[C@@]21C [FLUTICASONE PROPIONATE],> 30,> 30,> 30,> 10,> 30,> 30,> 30,> 30
Oc1ccc2c(c1)CC[C@H](c1ccccc1)[C@@H]2c1ccc(OCCN2CCCC2)cc1 [LASOFOXIFENE],> 30,5.3,,> 30,> 30,11,10,5.8
CC(C(=O)O)c1ccc(-c2ccccc2)c(F)c1 (stereo not drawn) [FLURBIPROFEN],> 10,2.6,> 30,> 10,> 10,> 10,> 10,> 10
CCC[C@H](NC(=O)[C@@H]1[C@H]2CCC[C@H]2CN1C(=O)[C@@H](NC(=O)[C@@H](NC(=O)c1cnccn1)C1CCCCC1)C(C)(C)C)C(=O)C(=O)NC1CC1,> 30,> 30,> 30,,> 30,> 30,,> 30
CC[C@@H]([C@H](C)O)n1ncn(-c2ccc(N3CCN(c4ccc(OC[C@@H]5CO[C@@](Cn6cncn6)(c6ccc(F)cc6F)C5)cc4)CC3)cc2)c1=O [POSACONAZOLE],,,,,,> 30,,> 30
C[C@H](Cc1cc2c(c(C(N)=O)c1)N(CCCO)CC2)NCCOc1ccccc1OCC(F)(F)F [SILODOSIN],,,,,,,> 30,
Cc1noc(NS(=O)(=O)c2ccc(N)cc2)c1C [SULFISOXAZOLE],> 30,> 30,> 30,,> 10,> 10,> 10,> 10
CC(N)C(O)c1ccccc1 (stereo not drawn) [PHENYLPROPANOLAMINE],> 10,> 30,> 10,> 10,> 30,> 30,> 10,> 30
Cc1cnc(C(=O)NCCc2ccc(S(=O)(=O)NC(=O)NC3CCCCC3)cc2)cn1 [GLIPIZIDE],> 10,> 30,,> 10,> 30,> 30,> 10,> 30
CCOC(=O)C1=C(C)NC(C)=C(C(=O)OC)C1c1cccc([N+](=O)[O-])c1 (stereo not drawn) [NITRENDIPINE],> 30,> 30,> 30,> 10,> 30,> 30,> 10,> 30
CCCN[C@H]1CCc2nc(N)sc2C1 [PRAMIPEXOLE],> 30,> 30,> 30,> 10,> 30,> 30,,> 30
CC(C)NCC(O)c1ccc(O)c(O)c1 (stereo not drawn) [ISOPROTERENOL],> 10,> 30,> 30,> 10,> 30,> 30,,20.3
CCCCC(=O)O[C@]1(C(=O)CO)[C@@H](C)C[C@H]2[C@@H]3CCC4=CC(=O)C=C[C@]4(C)[C@@]3(F)[C@@H](O)C[C@@]21C [BETAMETHASONE VALERATE],> 30,> 30,> 30,,> 30,> 30,> 10,> 30
CCCC(CCC)C(N)=O [VALPROMIDE],> 30,> 30,> 30,,> 30,> 30,> 10,> 30
Cc1cc(C(C)(C)C)cc(C)c1CC1=NCCN1 [XYLOMETAZOLINE],> 30,10,,,> 30,> 30,> 30,> 30
CC(C(=O)O)c1ccc(CC2CCCC2=O)cc1 (stereo not drawn) [LOXOPROFEN],> 30,> 30,,> 30,> 30,> 30,> 30,> 30
O=C(O)c1cn(C2CC2)c2cc(N3CCNCC3)c(F)cc2c1=O [CIPROFLOXACIN],,,,,> 30,> 30,,> 30
CN1CCC(=C2c3ccccc3CCc3cccnc32)CC1 [AZATADINE],> 30,3.1,> 30,,> 30,> 30,> 10,> 30
CN(C)CCCNc1c2ccccc2nc2cccc([N+](=O)[O-])c12 [NITRACRINE],> 30,2.7,,,> 30,> 30,> 30,> 30
CNC1=Nc2ccc(Cl)cc2C(c2ccccc2)=[N+]([O-])C1 [CHLORDIAZEPOXIDE],> 30,> 30,> 10,,> 30,> 30,> 10,
